Drawing on US7820665B2, “Imidazopyridazine inhibitors of PI3 kinase for cancer treatment” (Amgen Inc., priority 2007, dated 2010), this text covers IC50 for twelve compounds.

Where two headings read alike, the source gives them in different places.

The test system of assay [1] is Akt phosphorylation at Ser473 in HCT116 cells. Briefly: Cell-based phospho-AKT Ser473 assay (HCT116 Cell), MSD sandwich immunoassay.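 Also: IGF-1 added at 100 ng/mL for 15 min after compound treatment, electrochemiluminescent readout of phospho-Akt, DMSO-only wells define maximum signal, IC50 reflects inhibition of phosphorylation.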
Description: This assay determines the ability of a compound to inhibit the phosphorylation of Serine 472 in Akt using a MSD based sandwich immunoassay (Meso Scale Detection, Meso Scale Discovery (MSD), Gaithersburg, Md.). HCT116 human colon carcinoma cell lines can be grown in McCoy's 5A growth medium (GIBCO, Carlsbad, Calif.) containing 10% FBS (GIBCO, Carlsbad, Calif.) and X1 Penicillin-streptomycin-glutamine (GIBCO, Carlsbad, Calif.). Prior to the assay, cells can be detached from the culture flask with trypsin, and re-suspended in complete media to give a final concentration of 1.6×10^5 cells per mL. Aliquots (100 μl) of the HCT116 cell suspension can be seeded into each well of a 96 well tissue culture plate to give a final density of 16,000 cells per well. Cells can then be incubated overnight at 37° C.
The following day the cells can be treated with serially diluted test compounds and incubated for 2 hours at 37° C. The culture media on the HCT 116 cells can be replaced with 189 μL McCoys media, supplemented with 0.1% BSA (ICN Biomedicals, Inc., Costa Mesa, Calif.). […] Aliquots (1 μL) of serially-diluted compounds can be transferred to 96 well tissue culture plates containing the HCT 116 cells. […] As a maximum response control, wells can contain 0.5% DMSO in place of compound. The plates can be mixed at 700 rpm for 2 min to ensure even distribution of the test compound and incubated for 2 hours at 37° C. Cells can then be stimulated with insulin-like growth factor 1 (Sigma, St Louis, Mo.) at final concentration of 100 ng/mL for 15 minutes at 37° C. The media can then be removed and the cells treated with 80 μL cell-lysis buffer (MSD) containing a cocktail of protease and phosphatase inhibitors for one hour at 4° C.
25 μL Cell lysate can then be transferred to pre-blocked MSD assay plates pre-coated with a capture antibody specific for Akt, and the plates can be incubated for 2 hours at room temperature. The cell lysates can then be removed and plates can then be washed four times with 200 μl per well of Tris wash buffer (500 mM Tris, PH 7.5, 1.5 M NaCl, 0.2% Tween-20). Subsequently cells can be incubated for 1 hour at room temperature with a 25 μL solution containing the detection antibody, anti-phospho Akt (Ser 473) labeled with an electrochemiluminescent compound (Meso Scale Discovery SULPHO-TAG™ label, MSD, Gaithersburg, Md.). The detection antibody can be removed and plates can then be washed four times with 200 μL per well of Tris wash buffer. An aliquot of 150 μL of diluted MSD read buffer can then be applied to each well, and the electrochemiluminescent signal can be measured using a MSD SECTOR™ plate reader (Meso Scale Discovery, Gaithersburg, Md.). This instrument measures the intensity of emitted light to determine a quantitative measure of phosphorylated Akt in each well. The dose-response data obtained with each compound can be analyzed and the IC50 inhibition of Akt phosphorylation at Ser473 can be calculated.
In assay [2] the test system is phosphorylation of Akt at Serine 473 in U87 MG cells. Briefly: pAkt AlphaScreen (U87 Cell). The assay is classed as cell-based. Particulars: 2 h compound, pAkt Ser473 AlphaScreen. As to the method:
The pAkt AlphaScreen® assay (PerkinElmer, Waltham, Mass.) determines whether there is phosphorylation of Akt at Serine 473 by recruitment of a phosphospecific antibody. This assay was performed using U87 MG cells. The U87 growth media consists of MEM (Gibco, Carlsbad, Calif.) supplemented with 10% FBS (Gibco), 1× Non-Essential Amino Acids (Gibco) and 1× Penicillin/Streptomycin/Glutamine (Gibco). The cells were maintained weekly using 0.05% Trypsin (Gibco) and replated in 150 mm TC-Treated Culture Dishes (Corning, Corning, N.Y.).
The first day of the assay, the adherent cells were trypsinized, media was added to the loose cells and cells were mixed to a homogenous mixture. 0.5 ml of the homogenous mixture was counted on the Beckman Coulter® Vi-CELL™ XR (Fullerton, Calif.). 50 frames of cells were counted and the number of viable cells was determined. The cells were then diluted to 0.25 million cells per ml, and centrifuged at 200 rcf for 5 minutes. The media was removed and the cells were reconstituted in fresh media for plating. The cells were plated at 20 μl per well on the PerkinElmer® Flexprop PLUS in Low Volume 384 Well White Tissue Culture Plates (Corning) with a final cell density of 5K cells per well. The plates were incubated overnight at 37° Celsius, 5% CO2.
On the second day, the compound plates were prepared, the cells were treated with compound and the pAkt reaction mix was added to the cell lysate. 384 well compound plates were prepared containing 1 μl of compound per well starting at 5 mM and diluted 1:2 across the row, resulting in a 22 well serial dilution. 39 μl of growth media was added to the compound plate in rows 1-22 using the PerkinElmer® FlexDrop PLUS resulting in a DMSO concentration of 2.5%. The cell plates and diluted compound plates were put onto the VELOCITY11™ VPREP™ 384 ST where the compound plate was mixed and 5 μl of serially diluted compound or controls was added to the cell plate. The final concentration of the compounds was 25 μM serially diluted to 11.9 pM in 0.5% DMSO. The cell plates were then incubated with compound for two hours at 37° Celsius, 5% CO2. After two hours, the media in the cell plates was aspirated using the BioTek® ELx405HT plate washer (Winooski, Vt.) removing the majority of media and compound without disturbing the adherent U87 cells. The following assay reagents are components of the SureFire® Akt (Ser 473) Phosphorylation 50K Point Kit (TGR BioSciences, Adelaide, Australia) and an IgG Detection Kit (PerkinElmer, Waltham, Mass.). 5 μl of 1× Lysis Buffer was added to each well using the PerkinElmer® FlexDrop PLUS. The plates were then incubated at room temperature on a shaker for ten minutes. The AlphaScreen® reaction was prepared under low light conditions (subdued or green light) including p-Akt (Ser 473) Reaction Buffer, Dilution Buffer, Activation Buffer, Acceptor Beads and Donor Beads at a ratio of 40:20:10:1:1 respectively. The AlphaScreen® reaction was added to the cell lysate at 6 μl per well using the PerkinElmer® FlexDrop PLUS. The plates were placed in a humid environment to reduce edge effects and incubated overnight at room temperature with restricted air flow in the dark.
On the final day of the experiment, the plates were read on the PerkinElmer® EnVision™ 2103 Multilable Reader using the standard AlphaScreen® readout. The POC is calculated and the data is analyzed to report the IC50 IP for pAkt at Serine 473.

For the next assay, the target named is T1, PI3Kα (Homo sapiens, UniProt P42336).
T1 construct: Full length p110 subunits of PI3K α, β and δ, N-terminally labeled with polyHis tag; polyHis (N); made in house; host or cells: Sf9 insect cells (baculovirus)
T1 sequence (P42336 whole entry, species assumed): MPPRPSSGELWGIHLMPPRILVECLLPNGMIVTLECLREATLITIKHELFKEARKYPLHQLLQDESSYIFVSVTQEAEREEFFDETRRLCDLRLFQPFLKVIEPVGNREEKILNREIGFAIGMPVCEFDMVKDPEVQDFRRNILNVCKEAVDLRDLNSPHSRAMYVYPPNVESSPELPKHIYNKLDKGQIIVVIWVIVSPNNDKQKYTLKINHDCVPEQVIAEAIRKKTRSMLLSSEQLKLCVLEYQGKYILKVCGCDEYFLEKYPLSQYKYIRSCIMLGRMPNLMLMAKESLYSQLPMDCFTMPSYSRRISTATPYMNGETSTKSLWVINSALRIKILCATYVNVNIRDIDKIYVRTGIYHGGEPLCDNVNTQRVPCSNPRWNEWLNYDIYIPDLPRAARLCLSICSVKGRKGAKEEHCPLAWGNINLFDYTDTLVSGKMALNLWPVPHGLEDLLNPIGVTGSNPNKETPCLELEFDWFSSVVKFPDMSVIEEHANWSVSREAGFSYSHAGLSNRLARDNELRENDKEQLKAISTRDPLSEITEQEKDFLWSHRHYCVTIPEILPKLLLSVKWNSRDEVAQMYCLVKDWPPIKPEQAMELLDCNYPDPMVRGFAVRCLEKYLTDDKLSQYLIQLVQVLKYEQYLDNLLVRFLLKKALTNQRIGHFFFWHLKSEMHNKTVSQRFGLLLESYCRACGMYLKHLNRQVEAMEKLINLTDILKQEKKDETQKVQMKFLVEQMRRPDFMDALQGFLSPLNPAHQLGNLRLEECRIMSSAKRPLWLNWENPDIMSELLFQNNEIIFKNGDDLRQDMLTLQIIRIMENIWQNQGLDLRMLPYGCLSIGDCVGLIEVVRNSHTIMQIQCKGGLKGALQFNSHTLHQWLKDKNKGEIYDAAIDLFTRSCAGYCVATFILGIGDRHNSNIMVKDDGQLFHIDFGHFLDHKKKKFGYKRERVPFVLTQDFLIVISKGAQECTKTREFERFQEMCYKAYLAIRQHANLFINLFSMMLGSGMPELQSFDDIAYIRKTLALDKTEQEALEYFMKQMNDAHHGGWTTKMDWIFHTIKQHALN
T1 sequence (P27986 whole entry partner, species assumed): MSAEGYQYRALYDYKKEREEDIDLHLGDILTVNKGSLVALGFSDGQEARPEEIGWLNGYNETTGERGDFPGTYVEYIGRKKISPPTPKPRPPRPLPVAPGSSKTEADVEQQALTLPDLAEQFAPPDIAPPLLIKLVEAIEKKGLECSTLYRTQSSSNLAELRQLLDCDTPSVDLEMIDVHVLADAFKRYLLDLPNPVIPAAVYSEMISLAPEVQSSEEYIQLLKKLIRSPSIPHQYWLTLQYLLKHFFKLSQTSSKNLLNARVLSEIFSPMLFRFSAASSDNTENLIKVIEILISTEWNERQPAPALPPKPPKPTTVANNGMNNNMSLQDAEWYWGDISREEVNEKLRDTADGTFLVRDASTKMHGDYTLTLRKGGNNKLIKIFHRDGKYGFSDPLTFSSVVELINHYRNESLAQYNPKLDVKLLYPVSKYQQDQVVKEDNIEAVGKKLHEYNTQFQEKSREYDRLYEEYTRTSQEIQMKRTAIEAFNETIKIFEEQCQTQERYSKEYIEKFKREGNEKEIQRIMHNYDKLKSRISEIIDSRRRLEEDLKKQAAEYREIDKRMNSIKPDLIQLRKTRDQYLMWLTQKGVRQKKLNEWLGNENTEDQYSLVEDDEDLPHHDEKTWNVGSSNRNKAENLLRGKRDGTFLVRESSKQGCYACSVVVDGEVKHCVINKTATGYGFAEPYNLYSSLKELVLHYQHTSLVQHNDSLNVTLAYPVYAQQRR
Briefly: In vitro PI3 kinase enzyme assay (PI3K ATPLoss). It counts as biochemical. Particulars: recombinant p110α/p85, residual ATP by bioluminescence. The protocol:
Full length p110 subunits of PI3K α, β and δ, N-terminally labeled with polyHis tag, can be co-expressed with p85 with Baculo virus expression vectors in sf9 insect cells. P110/p85 heterodimers can be purified by sequential Ni-NTA, Q-HP, Superdex-100 chromatography. Purified α, β and δ isozymes can be stored at −20° C. in 20 mM Tris, pH 8, 0.2M NaCl, 50% glycerol, 5 mM DTT, 2 mM Na cholate. Truncated PI3Kγ, residues 114-1102, N-terminally labeled with polyHis tag, can be expressed with Baculo virus in Hi5 insect cells. The γ isozyme can be purified by sequential Ni-NTA, Superdex-200, Q-HP chromatography. The γ isozyme can be stored frozen at −80° C. in NaH2PO4, pH 8, 0.2M NaCl, 1% ethylene glycol, 2 mM β-mercaptoethanol.
PI3K enzyme assays (alpha, beta, delta and gamma) can be performed in 25 μL with the above final concentrations of components in white polyproplyene plates. Phosphatidyl inositol phosphoacceptor, PtdIns(4,5)P2 (e.g. P4508) can be obtained from Echelon Biosciences, Salt Lake City, Utah. The ATPase activity of the alpha and gamma isozymes may not be greatly stimulated by PtdIns(4,5)P2 under these conditions, it can be omitted from the assay of these isozymes. Test compounds can be dissolved in DMSO and diluted with three-fold serial dilutions. The compound in DMSO (1 μL) may be added per test well, and the inhibition relative to reactions containing no compound, with and without enzyme can be determined. After assay incubation at RT, the reaction can be stopped and residual ATP can be determined by addition of an equal volume of a commercial ATP bioluminescence kit (Perkin Elmer EasyLite, Perkin Elmer, Waltham, Mass.) according to the manufacturer's instructions, and detected using an Analyst GT luminometer.

Where [3] appears, read: Homo sapiens, HCT-116, 2 h, read-out: HCT116 Cell IC50, HCT116 cells, 2 h compound, IGF-1 stimulation, pAkt Ser473.
[4] abbreviates: read-out: HCT116 Cell IC50, HCT116 cells, 2 h compound, IGF-1 stimulation, pAkt Ser473.

With `CNC(C)c1ccc(S(=O)(=O)Nc2cc(-c3ccc4nc(NC(C)=O)cn4n3)cnc2Cl)cc1` (single isomer, unassigned) [Example 38, N-(6-(6-chloro-5-(4-(1-(methylamino)ethyl)phenylsulfonamido)pyridin-3-yl)imidazo[1,2-b]pyridazin-2-yl)acetamide], the IC50 in assay [1] (setting [3]) came to 124 nM; in assay [2] (Homo sapiens, U-87 MG, 2 h) it was 31 nM; at PI3Kα, 6 nM.
Consider `CNC(C)c1ccc(S(=O)(=O)Nc2cc(-c3ccc4nc(NC(C)=O)cn4n3)cnc2Cl)cc1` (single isomer, unassigned) [Example 39, N-(6-(6-chloro-5-(4-(1-(methylamino)ethyl)phenylsulfonamido)pyridin-3-yl)imidazo[1,2-b]pyridazin-2-yl)acetamide], for which the values for the IC50 (in assay [1] (setting [4]); in assay [2]; on PI3Kα) were 105 nM, 28 nM and 8 nM, respectively.
Regarding `CC(=O)Nc1cn2nc(-c3cnc(Cl)c(NS(=O)(=O)c4ccc(F)cc4)c3)ccc2n1` [Example 12, N-(6-(6-chloro-5-(4-fluorophenylsulfonamido)pyridin-3-yl)imidazo[1,2-b]pyridazin-2-yl)acetamide], the IC50 in assay [1] (setting [3]) is 31 nM; in assay [2] (Homo sapiens, U-87 MG, 2 h) it was 14 nM; at PI3Kα it was 7 nM.
`CC(=O)Nc1cn2nc(-c3cnc(Cl)c(NS(C)(=O)=O)c3)ccc2n1` [Example 19, N-(6-(6-Chloro-5-(methylsulfonamido)pyridin-3-yl)imidazo[1,2-b]pyridazin-2-yl)acetamide]: the IC50 came out at 218 nM in assay [1] (setting [3]); 133 nM in assay [2] (Homo sapiens, U-87 MG, 2 h); 5.7 nM at PI3Kα.
For the compound `CC(=O)Nc1cn2cc(-c3cnc(Cl)c(NS(=O)(=O)c4ccc(F)cc4)c3)ccc2n1` [Example 28, N-(6-(6-Chloro-5-(4-fluorophenylsulfonamido)pyridin-3-yl)imidazo[1,2-a]pyridin-2-yl)acetamide], the IC50 in assay [1] (setting [4]) came to 46 nM; in assay [2] (Homo sapiens, U-87 MG, 2 h), 118 nM; at PI3Kα, 9 nM.
On to `CC(=O)Nc1nc2ccc(-c3cnc(Cl)c(NS(=O)(=O)c4ccc(F)cc4)c3)cc2n1-c1ccccn1` [Example 32, N-(6-(6-Chloro-5-(4-fluorophenylsulfonamido)pyridin-3-yl)-1-(pyridin-2-yl)-1H-benzo[d]imidazol-2-yl)acetamide], for which the IC50 in assay [1] (setting [3]) turned out to be 2720 nM; at PI3Kα, 49 nM.
Consider `CC(=O)Nc1cn2nc(-c3cnc(Cl)c(NS(=O)(=O)c4cccc(OC(F)F)c4)c3)ccc2n1` [Example 33, N-(6-(6-Chloro-5-(3-(difluoromethoxy)phenylsulfonamido)pyridin-3-yl)imidazo[1,2-b]pyridazin-2-yl)acetamide], for which the IC50 in assay [1] (setting [3]) turned out to be 24 nM; in assay [2] (Homo sapiens, U-87 MG, 2 h), 15 nM; at PI3Kα, 7 nM.
`CC(=O)Nc1cn2nc(-c3cnc(Cl)c(NS(=O)(=O)c4c(C)cccc4Cl)c3)ccc2n1` [Example 34, N-(6-(6-Chloro-5-(2-chloro-6-methylphenylsulfonamido)pyridin-3-yl)imidazo[1,2-b]pyridazin-2-yl)acetamide]: the IC50 was 3 nM in assay [1] (setting [3]); 7 nM in assay [2] (Homo sapiens, U-87 MG, 2 h); 7 nM on PI3Kα.
Consider `CC(=O)Nc1cn2nc(-c3cnc(Cl)c(NS(=O)(=O)c4ccc(C(C)(C)O)cc4)c3)ccc2n1` [Example 35, N-(6-(6-Chloro-5-(4-(2-hydroxypropan-2-yl)phenylsulfonamido)pyridin-3-yl)imidazo[1,2-b]pyridazin-2-yl)acetamide], for which the IC50 in assay [1] (setting [3]) stood at 49 nM; in assay [2] (Homo sapiens, U-87 MG, 2 h), 34 nM; at PI3Kα it was 6 nM.
As to `Nc1cn2nc(-c3cnc(Cl)c(NS(=O)(=O)c4ccc(F)cc4)c3)ccc2n1` [Example 36, N-(5-(2-Aminoimidazo[1,2-b]pyridazin-6-yl)-2-chloropyridin-3-yl)-4-fluorobenzenesulfonamide], the IC50 in assay [1] (setting [4]) came out at 2430 nM; in assay [2] (Homo sapiens, U-87 MG, 2 h), 415 nM; at PI3Kα it was 83 nM.
As to `CC(=O)Nc1cn2nc(-c3cnc(Cl)c(NS(=O)(=O)c4ccc(F)cc4Cl)c3)ccc2n1` [Example 40, N-(6-(6-Chloro-5-(2-chloro-4-fluorophenylsulfonamido)pyridin-3-yl)imidazo[1,2-b]pyridazin-2-yl)acetamide], the IC50 in assay [1] (setting [3]) came out at 55 nM; in assay [2] (Homo sapiens, U-87 MG, 2 h), 21 nM; on PI3Kα it was 5 nM.
Take `CC(=O)Nc1cn2nc(-c3cnc(Cl)c(NS(=O)(=O)N4CCOCC4)c3)ccc2n1` [Example 41, N-(6-(6-Chloro-5-(morpholine-4-sulfonamido)pyridin-3-yl)imidazo[1,2-b]pyridazin-2-yl)acetamide]: the IC50 in assay [1] (setting [3]) worked out at 75 nM; in assay [2] (Homo sapiens, U-87 MG, 2 h), 47 nM; on PI3Kα, 6 nM.

Broadly, the IC50 is the concentration needed to halve the response being measured.
